Several values for one entry are separate records, joined by “and”; a condition that tells them apart may be missing. Equal entries are not always repeated.
Key:
Assay type in all cases: cell-based
[1] = molecular target: T1, mouse P2X4 (Mus musculus, UniProt Q9JJX6); assay: FLIPR assay, mouse P2X4 1321N1 Astrocytoma cells; conditions: agonist Mg-ATP 0.5 μM (EC80)
T1 sequence (Q9JJX6 1-388): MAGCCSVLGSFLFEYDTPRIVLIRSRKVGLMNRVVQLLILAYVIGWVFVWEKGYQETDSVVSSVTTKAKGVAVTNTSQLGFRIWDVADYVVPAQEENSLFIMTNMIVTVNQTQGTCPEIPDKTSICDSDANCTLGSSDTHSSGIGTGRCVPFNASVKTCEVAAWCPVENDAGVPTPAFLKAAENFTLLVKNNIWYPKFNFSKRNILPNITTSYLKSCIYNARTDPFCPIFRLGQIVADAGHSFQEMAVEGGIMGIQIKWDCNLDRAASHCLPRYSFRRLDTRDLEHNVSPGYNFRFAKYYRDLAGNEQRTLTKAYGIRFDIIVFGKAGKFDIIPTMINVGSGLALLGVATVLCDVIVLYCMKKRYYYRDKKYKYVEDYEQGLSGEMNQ
Procedure: (§1) 1321N1 Astrocytoma cells stably expressing human P2X4 or rat P2X4 or mouse P2X4 were plated in Collagen I TC-treated microplate at a seeding density of 10000 cells/well and incubated overnight. P2X4 function was assessed by measuring intracellular calcium changes using the calcium-chelating dye Fluo8-AM (Molecular Devices) on a fluorescent imaging plate reader (FLEX/FLIPR station; Molecular Devices). On the day of the assay, the medium was removed and the cells were incubated for 30 min at 37 °C and 5% CO2 in 30 μL of dye buffer (Hank's balanced salt solution, 10 mM HEPES, 1.8 mM CaCl2, 1 mM MgCl2, 2 mM probenecid, 5 mM D-glucose monohydrate, 5 μM Fluo8-AM, pH=7.4). Compounds diluted in probenecid buffer (Hank's balanced salt solution, 10 mM HEPES, 1.8 mM CaCl2, 1 mM MgCl2, 2 mM probenecid, 5 mM D-glucose monohydrate, pH=7.4) were added in a volume of 10 μL and allowed to incubate for 30 min at room temperature. The final assay DMSO concentration was 0.25%. The agonist, Mg-ATP (Sigma), was added in a volume of 10 μL at a concentration representing the EC80 value. EC80 was determined to be 0.5 μM for human and mouse P2X4 and 5 μM for rat P2X4. The fluorescence was measured for an interval of 120 sec at 2 sec intervals. The excitation and emission wavelengths used to monitor fluorescence were 470-495 nm and 515-575 nm, respectively. The data was analyzed based on the increase in peak relative fluorescence units (RFU) compared to the basal fluorescence and the data was normalized to the agonist control. The compounds were tested in triplicates per plate and mean values were plotted in Excel XLFit to determine IC50 values, percentage of maximal inhibition and the Hill coefficients.

[2] = molecular target: T2, human P2X4 (Homo sapiens, UniProt Q99571); assay: FLIPR assay, human P2X4 1321N1 Astrocytoma cells; conditions: agonist Mg-ATP 0.5 μM (EC80)
T2 sequence (Q99571 1-388): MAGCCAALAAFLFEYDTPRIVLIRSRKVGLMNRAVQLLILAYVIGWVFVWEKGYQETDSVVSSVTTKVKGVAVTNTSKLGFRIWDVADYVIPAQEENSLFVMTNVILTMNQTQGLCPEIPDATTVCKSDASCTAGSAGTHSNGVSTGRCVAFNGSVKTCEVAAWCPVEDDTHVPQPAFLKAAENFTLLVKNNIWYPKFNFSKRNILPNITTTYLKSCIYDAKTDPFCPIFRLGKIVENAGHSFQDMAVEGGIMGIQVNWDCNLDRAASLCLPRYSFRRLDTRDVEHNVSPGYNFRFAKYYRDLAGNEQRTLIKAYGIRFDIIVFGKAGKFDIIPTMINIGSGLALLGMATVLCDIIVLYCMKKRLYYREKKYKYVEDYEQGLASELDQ
Procedure: as §1

[3] = molecular target: T2, human P2X4; assay: Human P2X4 HEK Cell FLIPR Assay; conditions: agonist Bz-ATP at EC80; for Emax: HEK293, HEK293 cells, percentage of maximal inhibition, read-out: Human P2X4 HEK Cells (FLIPR Assay) avg Efficacy [%]; for IC50: HEK293 cells, individual values listed where some fall outside detection range
In short: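 HEK293 cells stably expressing human P2X4, Fluo8-AM loaded 30 min at 37° C, then compound 30 min at room temperature (0.5% DMSO, pH 7.4 buffer with 1.8 mM CaCl2). Bz-ATP at its daily-determined EC80 added; calcium fluorescence read over 120 sec; IC50 from peak RFU normalized to agonist control, triplicates.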

[4] = molecular target: T3, rat P2X4 (Rattus norvegicus, UniProt P51577); assay: FLIPR assay, rat P2X4 1321N1 Astrocytoma cells; conditions: agonist Mg-ATP 5 μM (EC80)
T3 sequence (P51577 1-388): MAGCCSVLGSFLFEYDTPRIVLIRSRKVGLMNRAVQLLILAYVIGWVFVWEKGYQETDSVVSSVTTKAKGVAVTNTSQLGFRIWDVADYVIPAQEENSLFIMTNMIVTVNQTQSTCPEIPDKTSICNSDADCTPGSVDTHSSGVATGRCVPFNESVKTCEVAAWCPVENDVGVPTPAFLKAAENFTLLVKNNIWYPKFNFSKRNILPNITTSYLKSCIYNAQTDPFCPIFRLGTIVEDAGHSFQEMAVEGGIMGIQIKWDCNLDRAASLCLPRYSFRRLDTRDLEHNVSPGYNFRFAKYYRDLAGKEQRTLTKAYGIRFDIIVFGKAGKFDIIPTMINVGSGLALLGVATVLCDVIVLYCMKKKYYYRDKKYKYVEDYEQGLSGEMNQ
Procedure: as §1

[5] = molecular target: T4, endogenous P2X4 channels (Homo sapiens, UniProt Q99571); assay: Human Monocyte P2X4 Assay (FLIPR); conditions: primary human monocytes, 3 μM BzATP, one value per donor
T4 construct: measure calcium influx through endogenous P2X4 channels into primary human monocytes
T4 sequence (Q99571 1-388): T2 sequence (Q99571 1-388)
Procedure: The principle of the assay is to measure calcium influx through endogenous P2X4 channels into primary human monocytes, following activation by 2′,3′-O-(4-benzoyl-benzoyl)-ATP (Bz-ATP). Intracellular calcium concentration changes were measured with a Flipr® (Molecular Devices) device using a calcium sensitive dye (Fluo-8). In primary monocytes P2X4 is located at the lysosome membrane, therefore exocytosis has to be triggered to expose P2X4 at the cellular membrane.
Human peripheral blood mononuclear cells (PBMCs) from anticoagulated blood (blood cells, BC) were isolated via density gradient centrifugation. Whole blood was diluted 1:3 with PBS. Samples of 30 mL were layered carefully on top of 15 mL Biocoll (BIOCHROM) in 50 mL centrifuge tubes (Falcon). Tubes were centrifuged at 914×g for 25 min at RT without brake. The PBMC layer was removed with a 10 mL pipette and transferred into tubes with ice-cold PBS in a total volume of 50 mL. Cells were washed twice by pelleting at 300×g at 4° C., for 10 min and for 5 min respectively. PBMCs were re-suspended in 10 mL medium (X-vivo, Biozym Scientific) and counted in a Neubauer chamber.
Monocytes were isolated by negative selection using the Monocyte isolation kit II from Miltenyi (#130-091-153) according to the instructions. Isolation should be done fast and cells and solutions should be kept on ice at any time. PBMCs in batches of 10 exp8 cells were pelleted (300×g, 10 min) and re-suspended with 300 μL MACS buffer in a 50 mL Falcon tube. FcR Blocking reagent (100 μl) and Biotin-Ab (100 μl) were added, mixed and incubated on ice for 10 min. MACS buffer (300 μL) and anti-Biotin Micro-beads (100 μL) were added, mixed and incubated on ice for 15 min. Cells were washed by pelleting (300×g for 10 min) and re-suspended in 500 μL MACS buffer. For each batch one separation column was placed in the MACS separator and rinsed with 3 mL MACS buffer. The cell suspension was added to the column, followed by 3×3 mL MACS buffer for washing, and the eluent containing the monocytes was collected. Cells were pelleted (300×g for 10 min), re-suspended in X-vivo medium and counted. Monocytes were seeded into fibronectin-coated micro-plates (384-well, black, flat transparent bottom; Corning #3848) at a density of 30,000 cells/well in 50 μL, and cultivated over night (37° C., 5% CO2).
Test substances were dissolved in 100% DMSO at a stock concentration of 10 mM and stored at −20° C. in aliquots. Serial dilutions (2×) were prepared in DMSO and diluted 500× with assay buffer to generate the antagonist plate. In the Flipr measurement, 10 μL per well were transferred (4× dilution) and a final top concentrations of 5 μM and 0.05% DMSO were obtained in the assay. Agonist BzATP was stored at 10 mM in aliquots and diluted to an intermediate concentration of 15 μM to generate the agonist plate. In the Flipr measurement, 10 μL per well were transferred (5× dilution) so that a final assay concentration of 3 μM was obtained.
For the experiment, the medium of the cell plate was discarded manually and 70 μL/well loading buffer was added and incubated for 1 h (37° C., 5% CO2). Loading buffer contained HBSS (w/o calcium/magnesium), 10 mM Hepes pH 7.4, 5 μM Fluo-8 (AM) (Tebu-bio) and 50 mM methylamine (Sigma) to trigger exocytosis. Loading buffer was discarded manually and 30 μL/well low-calcium assay buffer (5 mM KCl, 145 mM NaCl, 0.5 mM CaCl2, 13 mM glucose, 10 mM Hepes pH 7.4) was added. The antagonist plate was transferred (10 μL/well) and after 15 min at RT the agonist plate (10 μL/well) was transferred.
Agonist addition was recorded for 240 seconds after a 10 second baseline. For analysis, a baseline correction was applied, and the maximum of the curve was extracted. Data were normalized towards 0% inhibition (signal at 3 μM BzATP) and 100% inhibition (absence of BzATP stimulation) and fitted with a four-parameter sigmoidal inhibition curve using Prism GraphPad to obtain IC50 values.

Structure (SMILES)	Emax [3]	Human P2X4 Monocytes (FLIPR Assay) Efficacy for different donors [5]	other results
NS(=O)(=O)c1cc(NC(=O)Cc2ccccc2Cl)ccc1-n1cc(C(F)(F)F)cn1 [Example 19, 2-(2-Chlorophenyl)-N-{3-sulfamoyl-4-[4-(trifluoromethyl)-1H-pyrazol-1-yl]phenyl}acetamide]	71%	–	Mouse P2X4 1321N1 Astrocytoma Cells (FLIPR Assay) avg Efficacy [%] [1]: 69%; Human P2X4 1321N1 Astrocytoma Cells (FLIPR Assay) avg Efficacy [%] [2]: 60%; Rat P2X4 1321N1 Astrocytoma Cells (FLIPR Assay) avg Efficacy [%] [4]: 57%
NS(=O)(=O)c1cc(NC(=O)Cc2ccccc2Cl)ccc1-n1cnc(Cl)n1 [Example 24, 2-(2-Chlorophenyl)-N-[4-(3-chloro-1H-1,2,4-triazol-1-yl)-3-sulfamoylphenyl]-acetamide]	92%	77% and 88%	–
NS(=O)(=O)c1cc(NC(=O)Cc2ccccc2Cl)ccc1-n1cc(F)cn1 [Example 26, 2-(2-Chlorophenyl)-N-[4-(4-fluoro-1H-pyrazol-1-yl)-3-sulfamoylphenyl]acetamide]	85%	88%	–
NS(=O)(=O)c1cc(NC(=O)Cc2ccccc2Cl)ccc1-n1cc(Br)cn1 [Example 28, N-[4-(4-Bromo-1H-pyrazol-1-yl)-3-sulfamoylphenyl]-2-(2-chlorophenyl)acetamide]	90%	64% and 90%	–
COc1ccc(CC(=O)Nc2ccc(-n3cc(Cl)cn3)c(S(N)(=O)=O)c2)cc1 [Example 170, N-[4-(4-Chloro-1H-pyrazol-1-yl)-3-sulfamoylphenyl]-2-(4-methoxyphenyl)acetamide]	70%	69% and 54%	–
NS(=O)(=O)c1cc(NC(=O)Cc2ccccc2F)cnc1-c1cnn(C(F)F)c1 [Example 321, N-{6-[1-(Difluoromethyl)-1H-pyrazol-4-yl]-5-sulfamoylpyridin-3-yl}-2-(2-fluorophenyl)acetamide]	84%	34% and 46% and 95%	Emax ([5]; read-out: Human P2X4 Monocytes (FLIPR Assay) Efficacy for different donors): 49%; IC50 ([5]; read-out: Human P2X4 Monocytes (FLIPR Assay) IC50 for different donors): 157 nM
NS(=O)(=O)c1cc(NC(=O)Cc2ccccc2Cl)cnc1-n1cc(C(F)(F)F)cn1 [Example 380, 2-(2-Chlorophenyl)-N-{5-sulfamoyl-6-[4-(trifluoromethyl)-1H-pyrazol-1-yl]pyridin-3-yl}acetamide]	69%	32% and 107%	–
NS(=O)(=O)c1cc(NC(=O)Cc2ccccc2Cl)cnc1-n1cc(Cl)cn1 [Example 387, 2-(2-Chlorophenyl)-N-[6-(4-chloro-1H-pyrazol-1-yl)-5-sulfamoylpyridin-3-yl]acetamide]	73%	51%	–
N#Cc1cnn(-c2ccc(NC(=O)Cc3c(O)cccc3Cl)cc2S(N)(=O)=O)c1 [Example 557, 2-(2-Chloro-6-hydroxyphenyl)-N-[4-(4-cyano-1H-pyrazol-1-yl)-3-sulfamoylphenyl]acetamide]	89%	–	IC50 [3]: 11 nM
N#Cc1cnn(-c2ccc(NC(=O)C(O)c3ccccc3Cl)cc2S(N)(=O)=O)c1 (stereo not drawn) [Example 558, 2-(2-Chlorophenyl)-N-[4-(4-cyano-1H-pyrazol-1-yl)-3-sulfamoylphenyl]-2-hydroxyacetamide]	75%	–	IC50 [3]: 1380 nM

— patent US11524938B2, “Aromatic sulfonamide derivatives” (Bayer Pharma Aktiengesellschaft, priority 2016, dated 2022)
